In patent US10385065B2, “Antibacterial compounds” (priority 2014, dated 2019):
In brackets after ≈: the same amount, converted by molar mass. Read-outs that look alike come from different tables or passages of the source.

What was measured:
Format in all cases: cell-based
[1] = tested on: Enterococcus faecium ATCC 19434; assay: MIC, E. faecium ATCC 19434; settings: ATCC19434, Table 2
[2] = tested on: Escherichia coli ATCC 25922; assay: MIC, broth microdilution, E. coli ATCC 25922; settings: ATCC25922, Table 1, wild type strain
[3] = tested on: human hepatic cell line (HepG2 ATCC HB-8065); assay: Human cell viability assay (CellTiter-Glo), HepG2; settings: HepG2, 24 h incubation, tested over 1-128 μg/mL, read-out: IC50 values against HepG2
Experimental: Compounds are assessed for potential non-specific cytotoxic effects against a human hepatic cell line (HepG2 ATCC HB-8065). HepG2 cells are seeded at 20,000 cells/well in 96-well microtitre plates in minimal essential medium (MEM) supplemented with a final concentration of 10% FBS and 1 mM sodium pyruvate. After 24 h compound dilutions are prepared in Dulbecco's minimum essential media (DMEM) supplemented with final concentrations of 0.001% FBS, 0.3% bovine albumin and 0.02% HEPES and added to cells. Compounds are tested in two-fold serial dilutions over a final concentration range of 1-128 μg/mL in a final DMSO concentration of 1% vol/vol. Chlorpromazine is used as a positive control. Cells are incubated with compound at 37° C. and 5% CO2 for a further 24 h, after which time the CellTiter-Glo reagent (Promega) is added. Luminescence is measured on a BMG Omega plate reader. Data are analysed using GraphPad Prism software to determine the concentration of compound that inhibits cell viability by fifty percent (IC50).

[4] = tested on: Haemophilus influenzae ATCC 49247; assay: MIC, H. influenzae ATCC 49247; settings: ATCC49247, Table 4
[5] = tested on: Staphylococcus aureus ATCC 29213; assay: MIC, broth microdilution, S. aureus ATCC 29213
[6] = ATCC29213, Table 1, wild type strain, read-out: MIC S. aureus ATCC 29213
[7] = ATCC 29213 / MSSA, Table 2, read-out: MIC S. aureus (MSSA) ATCC 29213 CLSI control strain

Row | MIC [1] | MIC [2] | IC50 [3] | MIC [4] | MIC [5, 6] | MIC [5, 7] | Compound
1 | > 100 µg/mL | > 100 µg/mL | 10 to 100 µg/mL (≈ 27.2 to 272 µM) | 1 to 10 µg/mL (≈ 2.72 to 27.2 µM) | < 1 µg/mL | < 1 µg/mL | Cc1c(-c2cc(F)c(N)c(F)c2)ccc2c3ocnc3c(=O)n(C3CC3)c12 [Compound 19]
2 | > 100 µg/mL | 1 to 10 µg/mL (≈ 2.78 to 27.8 µM) | 10 to 100 µg/mL (≈ 27.8 to 278 µM) | 1 to 10 µg/mL (≈ 2.78 to 27.8 µM) | < 1 µg/mL | < 1 µg/mL | Cc1nc2c(=O)n(C3CC3)c3c(C)c(-c4ccc(CN)cc4)ccc3c2o1 [Compound 9, 7-[4-{aminomethyl)phenyl]-5-cyclopropyl-2,6-dimethyl-oxazolo[4,5-c]quinolin-4-one]
3 | – | – | > 100 µg/mL | – | – | – | O=C(O)c1cn(C2CC2)c2cc(N3CCNCC3)c(F)cc2c1=O [Ciprofloxacin, reference compound]
4 | > 100 µg/mL | > 100 µg/mL | > 100 µg/mL | 1 to 10 µg/mL (≈ 2.67 to 26.7 µM) | 10 to 100 µg/mL (≈ 26.7 to 267 µM) | > 100 µg/mL | Cc1nc2c(=O)n(C3CC3)c3c(C)c(-c4ccc(C(=O)O)cc4)ccc3c2o1 [Compound 8, 4-(5-cyclopropyl-2,6-dimethyl-4-oxo-oxazolo[4,5-c]quinolin-7-yl)benzoic acid]
5 | > 100 µg/mL | > 100 µg/mL | 10 to 100 µg/mL (≈ 27 to 270 µM) | 10 to 100 µg/mL (≈ 27 to 270 µM) | < 1 µg/mL | < 1 µg/mL | Cc1nc2c(=O)n(C3CC3)c3c(C)c(-c4ccc5[nH]ncc5c4)ccc3c2o1 [Compound 10, 5-cyclopropyl-7-(1H-indazol-5-yl)-2,6-dimethyl-oxazolo{4,5-c]quinolin-4-one]
6 | 10 to 100 µg/mL (≈ 25.2 to 252 µM) | 1 to 10 µg/mL (≈ 2.52 to 25.2 µM) | 10 to 100 µg/mL (≈ 25.2 to 252 µM) | 1 to 10 µg/mL (≈ 2.52 to 25.2 µM) | < 1 µg/mL | < 1 µg/mL | Cc1c(-c2cc(F)c(C(C)O)cc2F)ccc2c3ocnc3c(=O)n(C3CC3)c12 (stereo not shown) [Compound 22, 5-cyclopropyl-7-[2,5-difluoro-4-(1-hydroxyethyl)phenyl]-6-methyl-oxazolo[4,5-c]quinolin-4-one]
7 | > 100 µg/mL | 10 to 100 µg/mL (≈ 26 to 260 µM) | 10 to 100 µg/mL (≈ 26 to 260 µM) | < 1 µg/mL | < 1 µg/mL | < 1 µg/mL | Cc1nc2c(=O)n(C3CC3)c3cc(-c4cc(F)c(N)cc4F)c(F)cc3c2o1 [Compound 79, 7-(4-amino-2,5-difluoro-phenyl)-5-cyclopropyl-8-fluoro-2-methyl-oxazolo[4,5-c]quinolin-4-one]
8 | > 100 µg/mL | 10 to 100 µg/mL (≈ 29.7 to 297 µM) | 10 to 100 µg/mL (≈ 29.7 to 297 µM) | < 1 µg/mL | < 1 µg/mL | < 1 µg/mL | O=c1c2ncoc2c2cc(F)c(-c3ccc(O)cc3)cc2n1C1CC1 [Compound 64, 5-cyclopropyl-8-fluoro-7-(4-hydroxyphenyl)oxazolo[4,5-c]quinolin-4-one]
9 | > 100 µg/mL | 10 to 100 µg/mL (≈ 31.2 to 312 µM) | > 100 µg/mL | 1 to 10 µg/mL (≈ 3.12 to 31.2 µM) | 1 to 10 µg/mL (≈ 3.12 to 31.2 µM) | 1 to 10 µg/mL (≈ 3.12 to 31.2 µM) | Cc1nc2c(=O)n(C3CC3)c3c(C)c(-c4cn[nH]c4)ccc3c2o1 [Compound 29, 5-cyclopropyl-2,6-dimethyl-7-(1H-pyrazol-4-yl)oxazolo[4,5-c]quinolin-4-one]
10 | > 100 µg/mL | > 100 µg/mL | 10 to 100 µg/mL (≈ 27.7 to 277 µM) | 10 to 100 µg/mL (≈ 27.7 to 277 µM) | 1 to 10 µg/mL (≈ 2.77 to 27.7 µM) | 1 to 10 µg/mL (≈ 2.77 to 27.7 µM) | Cc1c(-c2cnc(N(C)C)nc2)ccc2c3ocnc3c(=O)n(C3CC3)c12 [Compound 41, 5-cyclopropyl-7-[2-(dimethylamino)pyrimidin-5-yl]-6-methyl-oxazolo[4,5-c]quinolin-4-one]
11 | > 100 µg/mL | 1 to 10 µg/mL (≈ 2.79 to 27.9 µM) | 10 to 100 µg/mL (≈ 27.9 to 279 µM) | > 100 µg/mL | < 1 µg/mL | < 1 µg/mL | Cc1c(-c2ccc3nonc3c2)ccc2c3ocnc3c(=O)n(C3CC3)c12 [Compound 46, 7-(2,1,3-benzoxadiazol-5-yl)-5-cyclopropyl-6-methyl-oxazolo[4,5-c]quinolin-4-one]

The remaining lines, values behind:

Row | Compound | MIC [1] | MIC [2] | IC50 [3] | MIC [4] | MIC [5, 6] | MIC [5, 7]
12 | NCC1CCN(c2nc3c(cc2F)c2ocnc2c(=O)n3C2CC2)C1 (stereo not shown) [Compound 81, 7-[3-(aminomethyl)pyrrolidin-1-yl]-5-cyclopropyl-8-fluoro-oxazolo[4,5-c][1,8]naphthyridin-4-one] | > 100 µg/mL | 1 to 10 µg/mL (≈ 2.91 to 29.1 µM) | > 100 µg/mL | 1 to 10 µg/mL (≈ 2.91 to 29.1 µM) | 1 to 10 µg/mL (≈ 2.91 to 29.1 µM) | 1 to 10 µg/mL (≈ 2.91 to 29.1 µM)
13 | Cc1nc2c(=O)n(C3CC3)c3c(C)c(-c4cc(F)c(C#N)cc4F)ccc3c2o1 [Compound 24] | > 100 µg/mL | 10 to 100 µg/mL (≈ 25.6 to 256 µM) | > 100 µg/mL | 1 to 10 µg/mL (≈ 2.56 to 25.6 µM) | < 1 µg/mL | < 1 µg/mL
14 | Cc1nc2c(=O)n(C3CC3)c3cc(N4CCC(C)(N)CC4)c(F)cc3c2o1 [Compound 55, 7-(4-amino-4-methylpiperidin-1-yl)-5-cyclopropyl-8-fluoro-2-methyl-oxazolo[4,5-c]quinolin-4-one] | > 100 µg/mL | 10 to 100 µg/mL (≈ 27 to 270 µM) | > 100 µg/mL | 1 to 10 µg/mL (≈ 2.7 to 27 µM) | 1 to 10 µg/mL (≈ 2.7 to 27 µM) | 1 to 10 µg/mL (≈ 2.7 to 27 µM)
15 | NC(=O)c1ccc(-c2cc3c(cc2F)c2ocnc2c(=O)n3C2CC2)cc1 [Compound 58, 4-(5-cyclopropyl-8-fluoro-4-oxo-oxazolo[4,5-c]quinolin-7-yl)benzamide] | > 100 µg/mL | 10 to 100 µg/mL (≈ 27.5 to 275 µM) | 10 to 100 µg/mL (≈ 27.5 to 275 µM) | 1 to 10 µg/mL (≈ 2.75 to 27.5 µM) | 1 to 10 µg/mL (≈ 2.75 to 27.5 µM) | 1 to 10 µg/mL (≈ 2.75 to 27.5 µM)
16 | Cc1nc2c(=O)n(C3CC3)c3c(C)c(-c4cc(F)c(CO)cc4F)ccc3c2o1 [Compound 34, 5-cyclopropyl-7-[2,5-difluoro-4-(hydroxymethyl)phenyl]-2,6-dimethyl-oxazolo[4,5-c]quinolin-4-one] | > 100 µg/mL | 1 to 10 µg/mL (≈ 2.52 to 25.2 µM) | > 100 µg/mL | 1 to 10 µg/mL (≈ 2.52 to 25.2 µM) | < 1 µg/mL | < 1 µg/mL
17 | Cc1c(-c2ccc(N)cc2F)ccc2c3ocnc3c(=O)n(C3CC3)c12 [Compound 5, 7-(4-amino-2-fluoro-phenyl)-5-cyclopropyl-6-methyl-oxazolo[4,5-c]quinolin-4-one] | > 100 µg/mL | 1 to 10 µg/mL (≈ 2.86 to 28.6 µM) | 10 to 100 µg/mL (≈ 28.6 to 286 µM) | < 1 µg/mL | < 1 µg/mL | < 1 µg/mL
18 | Cc1nc2c(=O)n(C3CC3)c3cc(N4CC[C@@H](C(C)(C)N)C4)c(F)cc3c2o1 [Compound 50, 7-[(3R)-3-(2-aminopropan-2-yl)pyrrolidin-1-yl]-5-cyclopropyl-8-fluoro-2-methyl-oxazolo[4,5-c]quinolin-4-one] | > 100 µg/mL | 1 to 10 µg/mL (≈ 2.6 to 26 µM) | 10 to 100 µg/mL (≈ 26 to 260 µM) | 10 to 100 µg/mL (≈ 26 to 260 µM) | 1 to 10 µg/mL (≈ 2.6 to 26 µM) | 1 to 10 µg/mL (≈ 2.6 to 26 µM)
19 | Cc1nc2c(=O)n(C3CC3)c3cc(N4CCC(N)C4)c(F)cc3c2o1 (stereo not shown) [Compound 56, 7-(3-aminopyrrolidin-1-yl)-5-cyclopropyl-8-fluoro-2-methyl-oxazolo[4,5-c]quinolin-4-one] | 10 to 100 µg/mL (≈ 29.2 to 292 µM) | 1 to 10 µg/mL (≈ 2.92 to 29.2 µM) | 10 to 100 µg/mL (≈ 29.2 to 292 µM) | 1 to 10 µg/mL (≈ 2.92 to 29.2 µM) | 1 to 10 µg/mL (≈ 2.92 to 29.2 µM) | 1 to 10 µg/mL (≈ 2.92 to 29.2 µM)
20 | Cc1nc2c(=O)n(C3CC3)c3c(C)c(-c4cnn(C5CN(C(=O)OC(C)(C)C)C5)c4)ccc3c2o1 [Compound 11, tert-butyl 3-[4-(5-cyclopropyl-2,6-dimethyl-4-oxo-oxazolo[4,5-c]quinolin-7-yl)pyrazol-1-yl]azetidine-1-carboxylate] | > 100 µg/mL | > 100 µg/mL | > 100 µg/mL | 10 to 100 µg/mL (≈ 21 to 210 µM) | 1 to 10 µg/mL (≈ 2.1 to 21 µM) | 1 to 10 µg/mL (≈ 2.1 to 21 µM)
21 | Cc1c(-c2ccc(NCc3ccccc3)nc2)ccc2c3ocnc3c(=O)n(C3CC3)c12 [Compound 48, 7-[6-(benzylamino)pyridin-3-yl]-5-cyclopropyl-6-methyl-oxazolo[4,5-c]quinolin-4-one] | > 100 µg/mL | 10 to 100 µg/mL (≈ 23.7 to 237 µM) | 10 to 100 µg/mL (≈ 23.7 to 237 µM) | 1 to 10 µg/mL (≈ 2.37 to 23.7 µM) | 1 to 10 µg/mL (≈ 2.37 to 23.7 µM) | 1 to 10 µg/mL (≈ 2.37 to 23.7 µM)
